The text below walks through data of patent US7067533B2, “Aminophenoxyacetamide derivatives and pharmaceutical composition containing thereof” (Daiichi Asubio Pharma Co., Ltd., priority 2000, dated 2006).

Assay [1] concerns primary cultures (neurons) from cerebral cortices of fetal Wistar rats. As to the kind of experiment: Biological Test 1: neuroprotective effect against glutamate induced neuronal cell death (MTT). To be noted: Compound: 1 μM; glutamate 1 mM; control group = 100%. It counts as cell-based, rat. How it is done:
Cultures were maintained at 37 C. in a 90% air/10% CO2 humidified incubator. Glutamate was added to the culture at day 4 to the final concentration of 1 mM. […] MTT was dissolved in phosphate buffered saline (PBS, pH 7.4) at 5 mg/ml and filtered to sterilize and remove a small amount of insoluble residue present in some batches of MTT, and added to the cultures at a final concentration of 0.5 mg/ml.
The test compounds (1 μM) was added 24 hrs prior to glutamate treatment and simultaneously with glutamate.
Survival rate of living cells (%) =[(test compound group—glutamic acid treated group)÷(control group—glutamic acid treated group)]×100

The test system is the same in assay [2]. Briefly: Biological Test 2: antagonism of the neuroprotective effect by MTA treatment (MTT). It counts as cell-based, rat. Particulars: 0.75 mM MTA added 30 minutes before test compound, glutamate. The method, then: This biological test is performed to determine whether the neuroprotective effect of the test compounds is due to the activation of receptors of physiological active substances or not, by using antagonistic test for neutralizing antibody and Inhibitor for FGF, NT-3, NT-4/5, BDNF, IGF-I/II, NGF, PDGF and estrogen, respectively.
Chem., 268, 4244 (1993)]. Therefore, the neuroprotective effect of the test compounds is inhibited by treatment of MTA, this effect is depended by the signal transfer effect through the phosphorylation of FGF receptor.
The inhibitors of the various kinds of receptor were dissolved in the optimum concentration, and MTA was dissolved in the concentration of 7.5 mM, just before the using. 30 minutes before the treatment of the test compounds, the optimum concentration of each inhibitors or 0.75 mM of MTA was added, and the neuroprotective effect of the test compounds was determined by mean of MTT method.

Assay [3] has as its system cerebral edema (water content of cerebral hemisphere), Wistar rats. Briefly: Biological Test 5: cerebral edema suppressing effect. It counts as in vivo. To be noted: iv, 144 h, rat, post-TBI day 6, read-out: Cerebral edema suppressing rate (%); for inhibition in vivo at 1 mg/kg: 1 mg/kg intravenously just after the operation; for inhibition in vivo at 3 mg/kg: 3 mg/kg intravenously just after the operation. How it is done:
Adult male Wistar rats weighing 210–230 g were used in the present study and housed in an artificially controlled environment with 12-hour light/dark cycle. Animals were anesthetized with pentobarbital sodium (50 mg/kg of body weight, i.p., Nembutal, Dinabbott, Japan) and placed in a stereotaxic apparatus. The skull was exposed and a hole was made on the parietal bone; 1.5 mm posterior and 0.8 mm lateral to the bregma. All procedures were performed under a surgery microscope to avoid excess irritation to the meninges and the underlying brain. A brass screw with a blunt tip (1.0 mm in diameter and 3.0 mm in length, Biomedica, Japan) was inset in the hole. The screw tip protruding intracranially was approximately 2.5 mm, which stuck into the parietal part of the right cerebrum through the meninges. In sham-operated rats, scalp was closed without attaching a screw to the hole. After surgery, all rats were kept in their original dens until sacrifice. Rats were allowed to feed chow and water ad libitum.
Under anesthesia the rat cerebral hemispheres of the target were processed for water content on post-TBI day 6 (n=6). The cerebral hemispheres dissected out were weighed, dried for 24 hours at 110 degree (Celsius) and then weighed again. The subtracted amount of the wet and dry weights was regarded as tissue water of the target, and utilized for the analysis of the cerebral edema.
The water content was calculated by using the following formula:
Water content (%) =[(wet weight of hemisphere—dry weight of hemisphere)/wet weight of hemisphere]×100
The test compounds were intravenously administered just after the operation via tail vein of the rats.

The test system of assay [4] is primary cultures (neurons) from cerebral cortices of fetal Wistar rats. As to the kind of experiment: Biological Test 4: neuroprotective inhibiting effect by calbindin antisense oligonucleotide (MTT). The format is cell-based, rat. Particulars: 300 μM glutamic acid.

As for `Cc1c(C)c(OCC(=O)N(C)C2CCN(CC(=O)Nc3ccccc3)CC2)c(C)c(C)c1N` [Compound 7, 2-(4-Amino-2,3,5,6-tetramethylphenoxy)-N-[1-(2-anilino-2-oxoethyl)-4-piperidinyl]-N-methylacetamide], the “Survival Rate (%) (Compound: 1 μl)” value in assay [1] worked out at 76%. Besides, the “Survival Rate (%) (Compound: 1 μl & MTA treatment)” value in assay [2] was determined as 32%.
The corresponding values for `CCCCN1CCC(N(C)C(=O)COc2c(C)c(C)c(N)c(C)c2C)CC1` [Compound 9, 2-(4-Amino-2,3,5,6-tetramethylphenoxy)-N-(1-butyl-4-piperidinyl)-N-methylacetamide] are 104% and 5%.
The like results for `Cc1c(C)c(OCC(=O)N(C)C2CCN(CC(=O)c3ccccc3)CC2)c(C)c(C)c1N` [Compound 10, 2-(4-Amino-2,3,5,6-tetramethylphenoxy)-N-[1-(2-phenyl-2-oxoethyl)-4-piperidinyl]-N-methylacetamide] were, in that order, 86% and 31%.
The corresponding values for `Cc1c(C)c(OCC(=O)N(C)C2CCN(CC(O)c3ccccc3)CC2)c(C)c(C)c1N` (centres unmarked) [Compound 11, 2-(4-Amino-2,3,5,6-tetramethylphenoxy)-N-[1-(2-hydroxy-2-phenylethyl)-4-piperidinyl]-N-methylacetamide] are 74% and 56%.
As to `Cc1c(C)c(OCC(=O)N(C)C2CCN(CCOc3ccccc3)CC2)c(C)c(C)c1N` [Compound 14, 2-(4-Amino-2,3,5,6-tetramethylphenoxy)-N-methyl-N-[1-(2-phenoxyethyl)-4-piperidinyl]acetamide], the inhibition in vivo at 1 mg/kg in assay [3] turned out to be 18.7%.
The same measure, in the same setting: in the case of `Cc1c(C)c(OCC(=O)N(C)C2CCN(CC(=O)N(C)c3ccccc3)CC2)c(C)c(C)c1N` [Compound 15, 2-(4-Amino-2,3,5,6-tetramethylphenoxy)-N-methyl-N-{1-[2-(N-methylanilino)-2-oxoethyl]-4-piperidinyl}acetamide] it was 14.7%.
Turning to `Cc1c(C)c(OCC(=O)N(C)C2CCN(CCN3CCOCC3)CC2)c(C)c(C)c1N` [Compound 16, 2-(4-Amino-2,3,5,6-tetramethylphenoxy)-N-methyl-N-{1-[2-(4-morpholinyl)ethyl]-4-piperidinyl}acetamide], the “Survival Rate (%) (Compound: 1 μl)” value in assay [1] came out at 101%. Further, the “Survival Rate (%) (Compound: 1 μl & MTA treatment)” value in assay [2] is given as 33%.
Consider `Cc1c(C)c(OCC(=O)N(C)C2CCN(CCOCC(O)c3ccccc3)CC2)c(C)c(C)c1N` (centres unmarked) [Compound 17, 2-(4-Amino-2,3,5,6-tetramethylphenoxy)-N-{1-[2-(2-hydroxy-2-phenylethoxy)ethyl]-4-piperidinyl}-N-methylacetamide], for which the “Survival Rate (%) (Compound: 1 μl)” value in assay [1] was determined as 85%. Moreover, the “Survival Rate (%) (Compound: 1 μl & MTA treatment)” value in assay [2] worked out at 55%.
The like results for `Cc1c(C)c(OCC(=O)N(C)C2CCN(Cc3ccc(C(N)=O)cc3)CC2)c(C)c(C)c1N` [Compound 19, 4-({4-[[(4-Amino-2,3,5,6-tetramethylphenoxy)acetyl]-(methyl)amino]-1-piperidinyl}methyl)bezamide] were, in that order, 96% and 28%.
On to `Cc1c(C)c(OCC(=O)N(C)C2CCN(C(C)Cc3ccccc3)CC2)c(C)c(C)c1N` (centres unmarked) [Compound 22, 2-(4-Amino-2,3,5,6-tetramethylphenoxy)-N-methyl-N-[1-(1-methyl-2-phenylethyl)-4-piperidinyl]acetamide], for which the “Survival Rate (%) (Compound: 1 μl)” value in assay [1] was 79%. The “Survival Rate (%) (Compound: 1 μl & MTA treatment)” value in assay [2] amounted to 32%.
`Cc1c(C)c(OC(C)C(=O)N(C)C2CCN(CC3CC3c3ccccc3)CC2)c(C)c(C)c1N` (stereo not drawn) [Compound 26, 2-(4-Amino-2,3,5,6-tetramethylphenoxy)-N-methyl-N-[1-(trans-2-phenyl-1-cyclopropylmethyl)-4-piperidniyl]propanamide]: the inhibition in vivo at 3 mg/kg in assay [3] was 11.9%.
Same read-out and setting: in the case of `Cc1c(C)c(OC(C)C(=O)N(C)C2CCN(CC(=O)N(C)c3ccccc3)CC2)c(C)c(C)c1N` (centres unmarked) [Compound 27, 2-(4-Amino-2,3,5,6-tetramethylphenoxy)-N-methyl-N-{1-[2-(N-methylanilino)-2-oxoethyl]-4-piperidinyl}propanamide] it was 11.8%.
For `Cc1c(C)c(OC(C)(C)C(=O)N(C)C2CCN(CCc3ccccc3)CC2)c(C)c(C)c1N` [Compound 28, 2-(4-Amino-2,3,5,6-tetramethylphenoxy)-N,2-dimethyl-N-[1-(2-phenylethyl)-4-piperidinyl]propanamide], the “Survival Rate (%) (Compound: 1 μl)” value in assay [1] was determined as 103%. Further, in assay [2], the “Survival Rate (%) (Compound: 1 μl & MTA treatment)” value was found to be 46%.
With `Cc1c(C)c(C)c(OCC(=O)N(C)C2CCN(CCc3ccccc3)CC2)c(N)c1C` [Compound 29, 2-(2-Amino-3,4,5,6-tetramethylphenoxy)-N-methyl-N-[1-(2-phenylethyl)-4-piperidinyl]acetamide], the inhibition in vivo at 1 mg/kg in assay [3] amounted to 13.8%.
For `Cc1c(C)c(N)c(C)c(OCC(=O)N(C)C2CCN(C(=O)c3ccccc3)CC2)c1C` [Compound 33, 2-(3-Amino-2,4,5,6-tetramethylphenoxy)N-(1-benzoyl-4-piperidinyl)-N-methylacetamide], the “Survival Rate (%) (Compound: 1 μl)” value in assay [1] is reported as 120%. The “Survival Rate (%) (Compound: 1 μl & MTA treatment)” value in assay [2] is 46%.
The corresponding values for `Cc1c(C)c(N)c(C)c(OCC(=O)N(C)C2CCN(Cc3ccc(C#N)cc3)CC2)c1C` [Compound 34, 2-(3-Amino-2,4,5,6-tetramethylphenoxy)-N-[1-(4-cyano-benzyl)-4-piperidinyl]-N-methylacetamide] are 74% and 21%.
As to `Cc1c(C)c(NCC(=O)N(C)C2CCN(c3nc4ccccc4s3)CC2)c(C)c(C)c1N` [Compound 37, 2-(4-Amino-2,3,5,6-tetramethylanilino)-N-[1-(1,3-benzothiazol-2-yl)-4-piperidinyl]-N-methylacetamide], the “Survival Rate (%) (Compound: 1 μl)” value in assay [1] is recorded as 95%. Also, the “Survival Rate (%) (Compound: 1 μl & MTA treatment)” value in assay [2] came out at 20%.
As for `Cc1c(C)c(NCC(=O)N(C)C2CCN(c3ccc(F)cc3)CC2)c(C)c(C)c1N` [Compound 38, 2-(4-Amino-2,3,5,6-tetramethylanilino)-N-[1-(4-fluorophenyl)-4-piperidinyl]-N-methylacetamide], the “Survival Rate (%) (Compound: 1 μl)” value in assay [1] was 124%. The “Survival Rate (%) (Compound: 1 μl & MTA treatment)” value in assay [2] is listed as 19%. For the same molecule, in assay [4] (0.1 μM), the “Survival Rate (%) [antisense (+): 5 μM]” value was 28% and the “Survival Rate (%) [antisense (−)]” value was determined as 100%. Also, in assay [4] (1 μM), the “Survival Rate (%) [antisense (+): 5 μM]” value was found to be 33% and the “Survival Rate (%) [antisense (−)]” value was determined as 106%.
In the case of `Cc1cc(C)c(NCC(=O)N(C)C2CCN(c3ccc(F)cc3)CC2)c(C)c1N` [Compound 39, 2-(3-Amino-2,4,6-trimethylanilino)-N-[1-(4-fluoro-phenyl)-4-piperidinyl]-N-methylacetamide], the “Survival Rate (%) (Compound: 1 μl)” value in assay [1] is 94%. For the same molecule, the “Survival Rate (%) (Compound: 1 μl & MTA treatment)” value in assay [2] was found to be 28%.
With “BFGF: Reference test substance in Table 10 (1 ng, 10 ng); not defined further; FGF is a physiologically active substance inducing CalbindinD-28k”, in assay [4] (1 ng), the “Survival Rate (%) [antisense (+): 5 μM]” value amounted to 8% and the “Survival Rate (%) [antisense (−)]” value is listed as 71%. Further, in assay [4] (10 ng), the “Survival Rate (%) [antisense (+): 5 μM]” value is listed as 35% and the “Survival Rate (%) [antisense (−)]” value was found to be 101%.
